# From ChEMBL document CHEMBL1687779, “Sodium nitrite-mediated killing of the major cystic fibrosis pathogens Pseudomonas aeruginosa, Staphylococcus aureus, and Burkholderia cepacia under anaerobic planktonic and biofilm conditions” (2010)
# The source made the active and inactive calls. The calls are words filed in the database; no cut-off is given here.
# Key:
# Pseudomonas aeruginosa [1] = assay: Antimicrobial activity against non-mucoid Pseudomonas aeruginosa PAO1 after 24 hrs aerobic condition; conditions: PAO1, 24 h
# Burkholderia cepacia [2] = assay: microbe, parasite or virus in culture; conditions: 24 h
# Description: Antimicrobial activity against Burkholderia cepacia isolated from cystic fibrosis patient after 24 hrs aerobic condition
# Pseudomonas aeruginosa [3] = conditions: PAO1, 64 to 256 ug/ml
# Description: Antimicrobial activity against non-mucoid Pseudomonas aeruginosa PAO1 assessed as inhibition of bacterial cell growth at 64 to 256 ug/ml after 24 hrs under anaerobic condition
# Pseudomonas aeruginosa [4] = assay: Antimicrobial activity against non-mucoid Pseudomonas aeruginosa PAO1 after 24 hrs anaerobic condition; conditions: PAO1, 24 h
# Pseudomonas aeruginosa [5] = assay: Antimicrobial activity against mucoid Pseudomonas aeruginosa FRD1 harboring mucA22 mutant after 24 hrs under aerobic condition; conditions: FRD1, 24 h
# Pseudomonas aeruginosa [6] = conditions: FRD1, 64 ug/ml
# Description: Antimicrobial activity against mucoid Pseudomonas aeruginosa FRD1 harboring mucA22 mutant assessed as inhibition of bacterial cell growth at 64 ug/ml after 24 hrs under anaerobic condition
# Staphylococcus aureus [7] = assay: Antimicrobial activity against Staphylococcus aureus USA300 after 24 hrs aerobic condition; conditions: USA300, 24 h
# Staphylococcus aureus [8] = conditions: USA300, 512 ug/ml
# Description: Antimicrobial activity against Staphylococcus aureus USA300 assessed as inhibition of bacterial cell growth at 512 ug/ml after 24 hrs under anaerobic condition
# Staphylococcus aureus [9] = conditions: USA300, 2048 ug/ml
# Description: Antimicrobial activity against Staphylococcus aureus USA300 assessed as 4 log inhibition of bacterial cell growth at 2048 ug/ml after 4 days under anaerobic condition
# Pseudomonas aeruginosa [10] = assay: Antimicrobial activity against mucoid Pseudomonas aeruginosa FRD1 harboring mucA22 mutant after 24 hrs under anaerobic condition; conditions: FRD1, 24 h
# Pseudomonas aeruginosa [11] = conditions: FRD1, 128 ug/ml
# Description: Antimicrobial activity against mucoid Pseudomonas aeruginosa FRD1 harboring mucA22 mutant assessed as inhibition of bacterial cell growth at 128 ug/ml after 24 hrs under anaerobic condition
# Staphylococcus aureus [12] = conditions: USA300, 1024 ug/ml
# Description: Antimicrobial activity against Staphylococcus aureus USA300 assessed as 2 log inhibition of bacterial cell growth at 1024 ug/ml after 2 days under anaerobic condition
# Staphylococcus aureus [13] = assay: Antimicrobial activity against Staphylococcus aureus USA300 after 24 hrs anaerobic condition; conditions: USA300, 24 h
# Pseudomonas aeruginosa [14] = conditions: FRD1, 256 ug/ml
# Description: Antimicrobial activity against mucoid Pseudomonas aeruginosa FRD1 harboring mucA22 mutant assessed as 2 log inhibition of bacterial cell growth at 256 ug/ml after 2 days under anaerobic condition
# Burkholderia cepacia [15] = conditions: 128 ug/ml
# Description: Antimicrobial activity against Burkholderia cepacia isolated from cystic fibrosis patient assessed as inhibition of bacterial cell growth at 128 ug/ml after 48 hrs under anaerobic condition
compound,measurement,setting,value
O=N[O-].[Na+] [SODIUM NITRITE],MIC,Pseudomonas aeruginosa [1],2050 µg/mL
same,MIC,Burkholderia cepacia [2],512 µg/mL
same,inhibition,Pseudomonas aeruginosa [3],Active
same,MIC,Pseudomonas aeruginosa [4],512 µg/mL
same,MIC,Pseudomonas aeruginosa [5],1020 µg/mL
same,inhibition,Pseudomonas aeruginosa [6],Active
same,MIC,Staphylococcus aureus [7],4100 µg/mL
same,inhibition,Staphylococcus aureus [8],Active
same,inhibition,Staphylococcus aureus [9],Active
same,MIC,Pseudomonas aeruginosa [10],128 µg/mL
same,inhibition,Pseudomonas aeruginosa [11],Active
same,inhibition,Staphylococcus aureus [12],Active
same,MIC,Staphylococcus aureus [13],1020 µg/mL
same,inhibition,Pseudomonas aeruginosa [14],Active
same,inhibition,Burkholderia cepacia [15],Active
